Assay results from patent US11019820B2 (BASF SE, priority 2013, dated 2021).
Where two headings read alike, the source gives them in different places.

What was measured:
Assay type in all cases: in vivo
Megoura viciae = test: Vetch aphid (Megoura viciae) leaf disk test; conditions: foliar, 120 h, read-out: mortality in comparison with untreated controls (aphid mortality)
Experimental: For evaluating control of vetch aphid (Megoura viciae) through contact or systemic means the test unit consisted of 24-well-microtiter plates containing broad bean leaf disks.
The compounds were formulated using a solution containing 75% v/v water and 25% v/v DMSO. Different concentrations of formulated compounds were sprayed onto the leaf disks at 2.5 μl, using a custom built micro atomizer, at two replications.
After application, the leaf disks were air-dried and 5-8 adult aphids placed on the leaf disks inside the microtiter plate wells. The aphids were then allowed to suck on the treated leaf disks and incubated at about 23±1° C. and about 50±5% relative humidity for 5 days. Aphid mortality and fecundity was then visually assessed.

Nilaparvata lugens = test: Rice brown plant hopper (Nilaparvata lugens) rice seedling spray test; conditions: read-out: mortality in comparison with untreated controls
Experimental: (§1) Rice seedlings were cleaned and washed 24 hours before spraying. The active compounds were formulated in 50:50 acetone:water (vol:vol) and 0.1% vol/vol surfactant (EL 620) was added. Potted rice seedlings were sprayed with 5 ml test solution, air dried, placed in cages and inoculated with 10 adults. Treated rice plants were kept at about 28-29° C. and relative humidity of about 50-60%. Percent mortality was recorded after 72 hours.

Anthonomus grandis = test: Boll weevil (Anthonomus grandis) diet microtiter plate test; conditions: 120 h, read-out: mortality in comparison with untreated controls (egg and larval mortality)
Experimental: For evaluating control of boll weevil (Anthonomus grandis) the test unit consisted of 96-well-microtiter plates containing an insect diet and 5-10 A. grandis eggs.
(§2) The compounds were formulated using a solution containing 75% v/v water and 25% v/v DMSO. Different concentrations of formulated compounds were sprayed onto the insect diet at 5 μl, using a custom built micro atomizer, at two replications.
After application, microtiter plates were incubated at about 25±1° C. and about 75±5% relative humidity for 5 days. Egg and larval mortality was then visually assessed.

Myzus persicae = test: Green peach aphid (Myzus persicae) systemic artificial diet test; conditions: 72 h, read-out: mortality in comparison with untreated controls (aphid mortality)
From the text: For evaluating control of green peach aphid (Myzus persicae) through systemic means the test unit consisted of 96-well-microtiter plates containing liquid artificial diet under an artificial membrane.
The compounds were formulated using a solution containing 75% v/v water and 25% v/v DMSO. Different concentrations of formulated compounds were pipetted into the aphid diet, using a custom built pipetter, at two replications.
After application, 5-8 adult aphids were placed on the artificial membrane inside the microtiter plate wells. The aphids were then allowed to suck on the treated aphid diet and incubated at about 23±1° C. and about 50±5% relative humidity for 3 days. Aphid mortality and fecundity was then visually assessed.

Dichromothrips corbetti = test: Orchid thrips (Dichromothrips corbetti) floral-immersion test; conditions: read-out: mortality in comparison with untreated controls
Experimental: Dichromothrips corbetti adults used for bioassay were obtained from a colony maintained continuously under laboratory conditions. For testing purposes, the test compound is diluted in a 1:1 mixture of acetone:water (vol:vol), plus 0.01% vol/vol Alkannuls® EL 620 surfactant.
Thrips potency of each compound was evaluated by using a floral-immersion technique. Plastic petri dishes were used as test arenas. All petals of individual, intact orchid flowers were dipped into treatment solution and allowed to dry. Treated flowers were placed into individual petri dishes along with about 20 adult thrips. The petri dishes were then covered with lids. All test arenas were held under continuous light and a temperature of about 28° C. for duration of the assay. After 3 days, the numbers of live thrips were counted on each flower, and along inner walls of each petri dish. The percent mortality was recorded 72 hours after treatment.

Nephotettix virescens = test: Rice green leafhopper (Nephotettix virescens) rice seedling spray test; conditions: read-out: mortality in comparison with untreated controls
Experimental: as §1, with “(vol:vol),” for “(vol:vol)”

Heliothis virescens = test: Tobacco budworm (Heliothis virescens) diet microtiter plate test; conditions: 120 h, read-out: mortality in comparison with untreated controls (egg and larval mortality)
Experimental: as §2, with “For evaluating control of tobacco budworm (Heliothis virescens) the test unit consisted of 96-well-microtiter plates containing an insect diet and 15-25 H. virescens eggs. The” for “The”, “at 10” for “at 5”
After application, microtiter plates were incubated at about 28±1° C. and about 80±5% relative humidity for 5 days. Egg and larval mortality was then visually assessed.

[1] = 2500 ppm, sprayed broad bean leaf disks, 5 days
[2] = 500 ppm, sprayed rice seedlings, after 72 hours
[3] = 2500 ppm, sprayed onto insect diet, 5 days
[4] = 2500 ppm, in aphid diet, 3 days
[5] = 500 ppm, floral immersion, 72 hours after treatment

C[C@@H]1C[C@@H](c2cnc(Cl)s2)[n+]2c([O-])c(-c3ccccc3)c(=O)n(C)c21 (racemic) [Compound C-29]
> 75%: mortality at 2500 ppm (Megoura viciae; [1]) | mortality at 500 ppm (Nilaparvata lugens; [2]) | mortality at 2500 ppm (Anthonomus grandis; [3]) | mortality at 2500 ppm (Myzus persicae; [4]) | mortality at 500 ppm (Dichromothrips corbetti; [5])

Cn1c2[n+](c([O-])c(-c3cccc(C(F)(F)F)c3)c1=O)[C@@H](c1cnc(Cl)s1)CC2 (single isomer, unassigned) [Compound C-28]
> 75%: mortality at 500 ppm (Nephotettix virescens; [2]) | mortality at 500 ppm (Nilaparvata lugens; [2]) | mortality at 500 ppm (Dichromothrips corbetti; [5])

C[n+]1c([O-])c(-c2ccccc2)c(=O)n2c1CCC2c1ccc(Cl)nc1 (stereo not drawn) [Compound C-1]
> 75%: mortality at 2500 ppm (Megoura viciae) | mortality at 2500 ppm (Heliothis virescens) | mortality at 500 ppm (Nephotettix virescens; 72 h) | mortality at 500 ppm (Nilaparvata lugens; 72 h) | mortality at 2500 ppm (Myzus persicae) | mortality at 500 ppm (Dichromothrips corbetti; 72 h)

CC[n+]1c([O-])c(-c2ccccc2)c(=O)n2c1CCC2c1ccc(Cl)nc1 (stereo not drawn) [Compound C-2]
> 75%: mortality at 2500 ppm (Megoura viciae) | mortality at 500 ppm (Nephotettix virescens; 72 h) | mortality at 2500 ppm (Myzus persicae) | mortality at 500 ppm (Dichromothrips corbetti; 72 h)

CC(C)[n+]1c([O-])c(-c2ccccc2)c(=O)n2c1CCC2c1ccc(Cl)nc1 (stereo not drawn) [Compound C-3]
> 75%: mortality at 2500 ppm (Megoura viciae; in Vicia faba) | mortality at 2500 ppm (Anthonomus grandis) | mortality at 2500 ppm (Myzus persicae) | mortality at 500 ppm (Dichromothrips corbetti; 72 h)

C[n+]1c([O-])c(-c2ccccc2)c(=O)n2c1CCC2c1cnc(Cl)s1 (stereo not drawn) [Compound C-6, 6-(2-chlorothiazol-5-yl)-1-methyl-4-oxo-3-phenyl-3,6,7,8-tetrahydro-2H-pyrrolo[1,2-a]pyrimidin-5-ium-2-olate]
> 75%: mortality at 2500 ppm (Megoura viciae) | mortality at 500 ppm (Nephotettix virescens; 72 h) | mortality at 500 ppm (Nilaparvata lugens; 72 h) | mortality at 2500 ppm (Myzus persicae) | mortality at 500 ppm (Dichromothrips corbetti; 72 h)

C[n+]1c([O-])c(-c2ccccc2)c(=O)n2c1CCCC2c1ccc(Cl)nc1 (stereo not drawn) [Compound C-8, 6-(6-chloro-3-pyridyl)-1-methyl-4-oxo-3-phenyl-6,7,8,9-tetrahydropyrido[1,2-a]pyrimidin-5-ium-2-olate]
> 75%: mortality at 2500 ppm (Megoura viciae) | mortality at 500 ppm (Nephotettix virescens; 72 h) | mortality at 2500 ppm (Myzus persicae) | mortality at 500 ppm (Dichromothrips corbetti; 72 h)

CSc1ncc(C2CCCc3n2c(=O)c(-c2ccccc2)c([O-])[n+]3C)s1 (stereo not drawn) [Compound C-12]
> 75%: mortality at 2500 ppm (Myzus persicae; [4])

C[n+]1c([O-])c(-c2ccccc2)c(=O)n2c1CCCC2c1cnc(Cl)s1 (stereo not drawn) [Compound C-13]
> 75%: mortality at 2500 ppm (Megoura viciae; [1]) | mortality at 2500 ppm (Myzus persicae; [4])

C=CCn1c([O-])c(-c2ccccc2)c(=O)[n+]2c1CCC2c1cnc(Cl)s1 (stereo not drawn) [Compound C-17]
> 75%: mortality at 2500 ppm (Myzus persicae; [4])

Cn1c2[n+](c([O-])c(-c3ccccc3)c1=O)C(c1cnc(Cl)s1)CO2 (stereo not drawn) [Compound C-19]
> 75%: mortality at 2500 ppm (Megoura viciae)

COC1=NC(c2c[n+]3c(=O)c(-c4ccccc4)c([O-])n(Cc4ccccc4)c3s2)CC1 (stereo not drawn) [Compound C-21]
> 75%: mortality at 2500 ppm (Myzus persicae; [4])

Cn1c2[n+](c([O-])c(-c3cccc(C(F)(F)F)c3)c1=O)C(c1cnc(Cl)s1)CC2 (stereo not drawn) [Compound C-22]
> 75%: mortality at 2500 ppm (Megoura viciae; [1]) | mortality at 500 ppm (Nephotettix virescens; [2]) | mortality at 2500 ppm (Myzus persicae; [4]) | mortality at 500 ppm (Dichromothrips corbetti; [5])

Cn1c2[n+](c([O-])c(-c3ccccc3)c1=O)C(c1cnc(Cl)c(-c3ccccc3)c1)CC2 (stereo not drawn) [Compound C-23]
> 75%: mortality at 2500 ppm (Myzus persicae; [4])

CCn1c([O-])c(-c2ccccc2)c(=O)[n+]2c1CCC2c1cnc(Cl)s1 (stereo not drawn) [Compound C-24]
> 75%: mortality at 2500 ppm (Megoura viciae; [1]) | mortality at 500 ppm (Nephotettix virescens; [2]) | mortality at 500 ppm (Nilaparvata lugens; [2]) | mortality at 2500 ppm (Myzus persicae; [4]) | mortality at 500 ppm (Dichromothrips corbetti; [5])

CCn1c([O-])c(-c2cccc(C(F)(F)F)c2)c(=O)[n+]2c1CCC2c1cnc(Cl)s1 (stereo not drawn) [Compound C-27]
> 75%: mortality at 2500 ppm (Megoura viciae; [1]) | mortality at 2500 ppm (Myzus persicae; [4]) | mortality at 500 ppm (Dichromothrips corbetti; [5])

C=CCn1c([O-])c(-c2cc(Cl)cc(Cl)c2)c(=O)[n+]2c1CCC2c1cnc(Cl)s1 (stereo not drawn) [Compound C-31]
> 75%: mortality at 2500 ppm (Megoura viciae; [1]) | mortality at 2500 ppm (Myzus persicae; [4])

CCn1c([O-])c(-c2cccc(C(F)(F)F)c2)c(=O)[n+]2c1COC2c1ccc(Cl)nc1 (stereo not drawn) [Compound C-32]
> 75%: mortality at 2500 ppm (Myzus persicae)

O=c1c(-c2ccccc2)c([O-])n(Cc2ccccc2)c2[n+]1C(c1cnc(Cl)s1)CC2 (stereo not drawn) [Compound C-34]
> 75%: mortality at 2500 ppm (Megoura viciae; [1]) | mortality at 2500 ppm (Myzus persicae; [4]) | mortality at 500 ppm (Dichromothrips corbetti; [5])

CCn1c([O-])c(-c2cccc(C(F)(F)F)c2)c(=O)[n+]2c1COC2c1cnc(Cl)s1 (stereo not drawn) [Compound C-35]
> 75%: mortality at 500 ppm (Dichromothrips corbetti; [5])

CN1C(=O)C(c2ccccc2)=C([O-])[N+]2=C(c3cnc(Cl)s3)CSC12 (stereo not drawn) [Compound C-38]
> 75%: mortality at 2500 ppm (Megoura viciae; [1]) | mortality at 2500 ppm (Heliothis virescens; [3]) | mortality at 500 ppm (Nephotettix virescens; [2]) | mortality at 500 ppm (Nilaparvata lugens; [2]) | mortality at 2500 ppm (Myzus persicae; [4]) | mortality at 500 ppm (Dichromothrips corbetti; [5])

Cn1c2[n+](c([O-])c(-c3ccccc3)c1=O)C(c1cnc(Cl)s1)CC2(C)C (stereo not drawn) [Compound C-40]
> 75%: mortality at 2500 ppm (Megoura viciae; [1]) | mortality at 2500 ppm (Anthonomus grandis; [3]) | mortality at 2500 ppm (Myzus persicae; [4])

C=CCn1c([O-])c(-c2cccc(C(F)(F)F)c2)c(=O)[n+]2c1CCC2c1cnc(Cl)s1 (stereo not drawn) [Compound C-41]
> 75%: mortality at 2500 ppm (Myzus persicae; [4])

CCn1c([O-])c(-c2cccc(-c3ccccc3)c2)c(=O)[n+]2c1COC2c1ccc(Cl)nc1 (stereo not drawn) [Compound C-43]
> 75%: mortality at 2500 ppm (Myzus persicae; [4])

CCn1c([O-])c(-c2cc(Cl)cc(Cl)c2)c(=O)[n+]2c1COC2c1ccc(Cl)nc1 (stereo not drawn) [Compound C-44]
> 75%: mortality at 2500 ppm (Megoura viciae) | mortality at 2500 ppm (Heliothis virescens) | mortality at 2500 ppm (Anthonomus grandis) | mortality at 2500 ppm (Myzus persicae)

Cn1c2[n+](c([O-])c(-c3cccc(-c4ccccc4)c3)c1=O)C(c1cnc(Cl)s1)CC2 (stereo not drawn) [Compound C-45]
> 75%: mortality at 2500 ppm (Megoura viciae; [1]) | mortality at 2500 ppm (Heliothis virescens; [3]) | mortality at 2500 ppm (Myzus persicae; [4]) | mortality at 500 ppm (Dichromothrips corbetti; [5])

CCn1c([O-])c(-c2ccc(OC)cc2)c(=O)[n+]2c1CCC2c1cnc(Cl)s1 (stereo not drawn) [Compound C-47]
> 75%: mortality at 2500 ppm (Megoura viciae; [1]) | mortality at 500 ppm (Nephotettix virescens; [2]) | mortality at 2500 ppm (Anthonomus grandis; [3]) | mortality at 2500 ppm (Myzus persicae; [4]) | mortality at 500 ppm (Dichromothrips corbetti; [5])

Cn1c2[n+](c([O-])c(-c3cccc(-c4ncc(C(F)(F)F)cc4Cl)c3)c1=O)C(c1cnc(Cl)s1)CC2 (stereo not drawn) [Compound C-48]
> 75%: mortality at 2500 ppm (Megoura viciae; [1]) | mortality at 2500 ppm (Myzus persicae; [4]) | mortality at 500 ppm (Dichromothrips corbetti; [5])

CCn1c([O-])c(-c2cccc(-c3ccccc3)c2)c(=O)[n+]2c1CCC2c1cnc(Cl)s1 (stereo not drawn) [Compound C-49]
> 75%: mortality at 2500 ppm (Megoura viciae; [1]) | mortality at 2500 ppm (Myzus persicae; [4]) | mortality at 500 ppm (Dichromothrips corbetti; [5])

Cn1c2[n+](c([O-])c(-c3cc(Cl)cc(Cl)c3)c1=O)C(c1cnc(Cl)s1)CC2 (stereo not drawn) [Compound C-50]
> 75%: mortality at 2500 ppm (Megoura viciae; [1]) | mortality at 2500 ppm (Myzus persicae; [4]) | mortality at 500 ppm (Dichromothrips corbetti; [5])
